System: hepatic mitochondrial fluxes (VPC, VCS)
Experiment: PINTA / ex vivo NMR tracer study in rats infused with [3-^13C]lactate and [3-^3H]glucose (Example 1)
Conditions: 120 min [3-^13C]lactate infusion, mean ± S.E.M.
Source text: Male Sprague-Dawley rats (˜10 weeks of age) were ordered from Charles River (Wilmington, Mass.) at ˜300 g and fed regular chow unless otherwise specified. […] Prior to studies, rats underwent surgery under general isoflurane anesthesia to place polyethylene catheters in the jugular vein and common carotid artery (PE90 and PE50 tubing, respectively; Instech, Plymouth Meeting, Pa.). After 1 week, recovery was verified by confirming that the rats had regained their surgical weight. Unless otherwise specified, all experiments were performed following an overnight fast (16 hrs food withdrawal prior to sacrifice). In both the rodent and human studies, data are represented as the mean of two technical replicates for each subject (i.e. two technical replicates per biological replicate). Sample sizes were selected to give power to detect moderate to large differences between groups (n=5-6 per group), and all animals were included in the final analysis.
The investigator performing the animal studies was not blinded for practical reasons, but the investigators analyzing fluxes were blinded as to the group allocation.
The flux calculations required the following equations using [^13C] glucose positional enrichment in plasma or liver, determined by NMR and GC/MS mass spectrometry. VPC is the rate of pyruvate carboxylase flux as determined from the anaplerotic flow into oxaloacetate (OAA). VCS is defined as the flux of the citrate synthase reaction in the citric acid cycle. […] G2 denotes [m+2] glucose arising from the condensation of two singly-labeled trioses.
GC/MS was used to measure m+1 and m+2 [^13C]glucose enrichment. The total m+1 and m+2 [^13C]glucose enrichment was measured using a pentaacetate derivative: plasma or liver samples were deproteinized using 5 volumes of methanol, dried, and derivatized with 75 μL of 1:1 acetic anhydride:pyridine. After heating to 65° C. for 20 min, the reaction was terminated by adding 25 μL methanol, and m+1 and m+2 (as well as m+3 . . . m+6) were determined by GC/MS (CI mode, m/z 331 [m], 332 [m+1], 333 [m+2], . . . 337 [m+6]). The m+1 and m+2 [^13C] enrichments of the glucose C4C5C6 fragment were determined by generating the aldonitrile pentapropionate derivative: plasma or NMR liver extract samples were dried under N2 gas, and 50 μl hydroxylamine hydrochloride (20 mg/ml in pyridine) were added. The samples were heated at 90° C. for 60 min, then 100 μl propionic anhydride was added, after which the samples were heated at 60° C. for 30 min. Finally, the samples were evaporated under N2 gas, resuspended in ethyl acetate, and the m+1 and m+2 enrichment of the glucose C4C5C6 fragment was measured by GC/MS.
[^13C]alanine enrichment was measured by GC/MS. [^13C] NMR spectroscopy using the BRUKER TOPSPIN® system was utilized to measure relative positional 13C-enrichment of glucose, and combined with the total [^13C]glucose enrichment ([m+1]+2*[m+2]) measured by GC/MS to calculate the positional enrichment of [13C]glucose.
Total [^13C]glutamate enrichment was determined by LC-MS/MS. Approximately 100 mg of liver tissue was weighed out and homogenized in 500 μl ice-cold methanol using a TissueLyser, then centrifuged at 4000 rpm for 10 minutes. The supernatant was then purified by centrifugation (4000 rpm, 10 min) through the PALL NANOSEP® filter (100K) (Port Washington, N.Y.). Glutamate 13C enrichment ([m+1], [m+2]) was then assessed by LC-MS/MS using an AB SCIEX QTRAP 6500 (Framingham, Mass.), equipped with a SHIMADZU ultra-fast liquid chromatography (UFLC) system (Columbia, Md.) and electrospray ionization (ESI) source with negative-ion detection. The measured ion pairs were 146/128 (m0), 147/129 (m+1), and 148/130 (m+2).
Positional enrichment of glucose, glutamate, and alanine was measured by 13C NMR.

glucagon
VPDH/VCS (%) (rat liver): 2.7 ± 0.1%
VPK+ME/VPC+PDH (%) (rat liver): <2%
VPC/VEGP (%) (rats): 65 ± 3%

— patent US11484608B2, “Non-invasive assessment of hepatic mitochondrial metabolism by positional isotopomer NMR tracer analysis (PINTA)” (YALE UNIVERSITY, priority 2017, dated 2022)
